In the oligonucleotide strings, read from the 5' end, every base follows the letter of its sugar. An asterisk marks phosphorothioate; unmarked linkages are phosphodiester. Other units and linkages are bracketed, terminal groups are in braces. A string of capitals states the bases alone. d = 2'-deoxy (DNA); m = 2'-O-methyl
Target: T1, TLR8 (Homo sapiens, UniProt Q9NR97)
T1 sequence (Q9NR97 27-1041): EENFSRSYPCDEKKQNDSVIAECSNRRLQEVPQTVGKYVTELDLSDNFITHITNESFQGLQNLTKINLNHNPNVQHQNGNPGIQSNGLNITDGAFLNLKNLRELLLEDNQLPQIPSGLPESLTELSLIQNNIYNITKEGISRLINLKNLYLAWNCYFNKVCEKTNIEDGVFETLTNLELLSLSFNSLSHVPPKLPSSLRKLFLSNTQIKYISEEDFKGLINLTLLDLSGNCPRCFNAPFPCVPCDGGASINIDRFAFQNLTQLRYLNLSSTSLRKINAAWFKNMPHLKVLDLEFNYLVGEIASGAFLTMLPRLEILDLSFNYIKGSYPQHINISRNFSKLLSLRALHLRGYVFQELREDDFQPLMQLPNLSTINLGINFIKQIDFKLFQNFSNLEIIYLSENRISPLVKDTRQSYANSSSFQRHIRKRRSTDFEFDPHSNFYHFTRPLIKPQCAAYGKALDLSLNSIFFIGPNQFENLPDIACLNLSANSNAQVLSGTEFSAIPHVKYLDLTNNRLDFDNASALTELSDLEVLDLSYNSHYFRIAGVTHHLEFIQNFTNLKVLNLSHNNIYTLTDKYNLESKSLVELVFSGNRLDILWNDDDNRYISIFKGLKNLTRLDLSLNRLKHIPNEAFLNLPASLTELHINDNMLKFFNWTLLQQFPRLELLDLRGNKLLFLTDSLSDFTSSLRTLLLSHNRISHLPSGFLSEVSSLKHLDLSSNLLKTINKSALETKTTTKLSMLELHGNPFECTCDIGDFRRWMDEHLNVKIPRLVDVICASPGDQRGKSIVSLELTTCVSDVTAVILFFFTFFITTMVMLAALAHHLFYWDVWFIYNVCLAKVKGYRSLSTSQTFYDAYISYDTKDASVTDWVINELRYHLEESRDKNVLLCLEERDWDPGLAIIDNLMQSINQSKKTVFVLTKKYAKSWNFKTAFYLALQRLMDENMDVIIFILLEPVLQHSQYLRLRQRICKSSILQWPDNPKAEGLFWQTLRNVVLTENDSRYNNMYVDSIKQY
Assay: HEK-TLR8 NF-κB-luciferase reporter, R848 or Motolimod stimulation (potentiation or inhibition)
Format: cell-based
Parameters: expressed in transfected cells; host or cells: 293XLhTLR8 (HEK293)
Conditions: for TLR8-500 nM: averaged NF-κB-Luciferase relative to R848: HEK-TLR8, 500 nM ASO, fold increase relative to R848 without ASO (Alharbi et al., 2020); for TLR8 100 nM (averaged NF-κB-Luciferase level relative to R848 condition, fold increase): ASO 100 nM; for TLR8 100 nM (averaged NF-κB-Luciferase level relative to R848 condition, fold increase) / TLR8 500 nM (averaged NF-κB-Luciferase level relative to R848 condition, fold increase): relative to R848 only; for TLR8 500 nM (averaged NF-κB-Luciferase level relative to R848 condition, fold increase): ASO 500 nM

Substance | TLR8-500 nM: averaged NF-κB-Luciferase relative to R848 | TLR8 100 nM (averaged NF-κB-Luciferase level relative to R848 condition, fold increase) | TLR8 500 nM (averaged NF-κB-Luciferase level relative to R848 condition, fold increase) | TLR8 100 nM (MOE-modified ASO at 100 nM, averaged NF-κB-Luciferase relative to R848 condition (fold increase)) | TLR8 500 nM (MOE-modified ASO at 500 nM, averaged NF-κB-Luciferase relative to R848 condition (fold increase))
mA*mG*mC*mA*mG*T*C*T*C*C*A*T*G*T*C*mC*mC*mA*mG*mG (AGCAGTCTCCATGTCCCAGG; antisense; sugars from the 5' end m5 d10 m5, all phosphorothioate, methylation of C not given here) [[CDKN2B-AS1]2235] | 4.93 fold | – | – | – | –
GGTCTTGGCTTCGTGG (antisense; LNA-modified, pattern not given here) [MB21D1-523 LNA V1] | – | 0.616 | 1.386 | – | –
GGCACTTTGCCTCCTT (antisense; LNA-modified, pattern not given here) [EGFR-2859 LNA V1] | – | 0.652 | 0.862 | – | –
TACTTTCCGAGGTGTC (antisense; LNA-modified, pattern not given here) [CAMSAP1-1739 LNA KL] | – | 0.417 | 1.585 | – | –
GCACTTCAGTCTGAGC (antisense; LNA-modified, pattern not given here) [MB21D1-719 LNA KL] | – | 0.495 | 0.864 | – | –
AGGTCTTGGCTTCGTG (antisense; LNA-modified, pattern not given here) [MB21D1-524 LNA V1] | – | 0.596 | 1.953 | – | –
ACTTCGTGGGGTCCTT (antisense; LNA-modified, pattern not given here) [HPRT LNA-663 V1] | – | 0.820 | 3.672 | – | –
AACACTTCGTGGGGTC (antisense; LNA-modified, pattern not given here) [HPRT LNA-666 V1] | – | 0.496 | 0.882 | – | –
TGGTCCACAACCCCTT (antisense; LNA-modified, pattern not given here) [MB21D1-697 LNA V1] | – | 0.559 | 1.454 | – | –
mG*mU*mG*mU*mU*T*T*T*A*A*T*T*T*T*G*mU*mA*mG*mA*mG (mG*mU*mG*mU*mU*dT*dT*dT*dA*dA*dT*dT*dT*dT*dG*mU*mA*mG*mA*mG) [[CDKN2B-AS1]611] | 1.88 fold | – | – | – | –
TCCTTGCACGTGGCTT (antisense; LNA-modified, pattern not given here) [EGFR-1014 LNA V1] | – | 0.491 | 0.601 | – | –
mG*mU*mC*mU*mC*C*A*T*G*T*C*C*C*A*G*mG*mC*mC*mU*mC (mG*mU*mC*mU*mC*dC*dA*dT*dG*dT*dC*dC*dC*dA*dG*mG*mC*mC*mU*mC) [[CDKN2B;AS1]2231] | 1.25 fold | – | – | – | –
GACTATACGCGCAATA (antisense; LNA-modified, pattern not given here) [NC5 LNA PS 3-10-3] | – | 0.777 | 3.376 | – | –
AGCTTCGAGGCCCCAG (antisense; LNA-modified, pattern not given here) [MB21D1-616 LNA V1] | – | 0.331 | 0.865 | – | –
AAAGGACTGAGGAAAG (antisense; LNA-modified, pattern not given here) [CAMSAP1-6273 LNA KL] | – | 0.882 | 2.663 | – | –
ACACTTCGTGGGGTCCTTTT (antisense; 2'-MOE modified, pattern not given here) [HPRT-663 MOE] | – | – | – | 4.778 | 6.320

Substance | TLR8-500 nM: averaged NF-κB-Luciferase relative to R848 | TLR8 100 nM (averaged NF-κB-Luciferase level relative to R848 condition, fold increase) | TLR8 500 nM (averaged NF-κB-Luciferase level relative to R848 condition, fold increase) | TLR8 100 nM (MOE-modified ASO at 100 nM, averaged NF-κB-Luciferase relative to R848 condition (fold increase)) | TLR8 500 nM (MOE-modified ASO at 500 nM, averaged NF-κB-Luciferase relative to R848 condition (fold increase))
AACCCCTTTCACCATC (antisense; LNA-modified, pattern not given here) [MB21D1-689 LNA KL] | – | 1.871 | 8.654 | – | –
TGGTGGCCACCCATCT (antisense; LNA-modified, pattern not given here) [CTNN2B-2479 LNA V1] | – | 0.464 | 0.604 | – | –
mA*mA*mA*mG*mC*A*G*T*C*T*C*C*A*T*G*mU*mC*mC*mC*mA (mA*mA*mA*mG*mC*dA*dG*dT*dC*dT*dC*dC*dA*dT*dG*mU*mC*mC*mC*mA; antisense) [[CDKN2B-AS1]2237] | 3.38 fold | – | – | – | –
TGTCTGGAAGCTTCCT (antisense; LNA-modified, pattern not given here) [CTNN2B-808 LNA V1] | – | 0.600 | 0.871 | – | –
GGCTCGGCTTGCCTAC (antisense; LNA-modified, pattern not given here) [CAMSAP1-5594 LNA V1] | – | 0.374 | 0.706 | – | –
AGGCCCTTCGCACTTC (antisense; LNA-modified, pattern not given here) [EGFR-1225 LNA V1] | – | 0.507 | 0.967 | – | –
mA*mA*mG*mC*mA*G*T*C*T*C*C*A*T*G*T*mC*mC*mC*mA*mG (mA*mA*mG*mC*mA*dG*dT*dC*dT*dC*dC*dA*dT*dG*dT*mC*mC*mC*mA*mG; antisense) [[CDKN2B-AS1]2236] | 2.62 fold | – | – | – | –
mA*mG*mU*mG*mG*C*A*C*A*T*A*C*C*A*C*mA*mC*mC*mC*mU (AGUGGCACATACCACACCCU; antisense; sugars from the 5' end m5 d10 m5, all phosphorothioate, methylation of C not given here) [[CDKN2B-AS1]495] | 4.48 fold | – | – | – | –
CCACTTGGCAGACCAT (antisense; LNA-modified, pattern not given here) [CTNN2B-1575 LNA V1] | – | 0.684 | 1.213 | – | –
CTTGGCTTCGTGGAGC (antisense; LNA-modified, pattern not given here) [MB21D1-520 LNA V1] | – | 0.458 | 0.594 | – | –
CCCACTTGGCAGACCA (antisense; LNA-modified, pattern not given here) [CTNN2B-1576 LNA V1] | – | 0.899 | 1.865 | – | –
AGTGTTGAGATACTCG (antisense; LNA-modified, pattern not given here) [EGFR-3652 LNA KL] | – | 0.427 | 0.599 | – | –
CACTTCGTGGGGTCCT (antisense; LNA-modified, pattern not given here) [HPRT LNA-664 V1] | – | 0.425 | 1.446 | – | –
CTTCGTGGGGTCCTTT (antisense; LNA-modified, pattern not given here) [HPRT LNA-662 V1] | – | 1.097 | 4.366 | – | –
CCAGCAGGTCAGCAAA (antisense; LNA-modified, pattern not given here) [HPRT LNA-388 KL] | – | 0.412 | 1.499 | – | –
mA*mG*mU*mC*mU*C*C*A*T*G*T*C*C*C*A*mG*mG*mC*mC*mU (mA*mG*mU*mC*mU*dC*dC*dA*dT*dG*dT*dC*dC*dC*dA*mG*mG*mC*mC*mU; antisense) [[CDKN2B-AS1]2232] | 2.28 fold | – | – | – | –

Source: patent US20240384268A1, “Oligonucleotides” (Hudson Institute of Medical Research, priority 2021, published 2024)
